The text below walks through data of patent US20110123623A1, “RHAMNOLIPID MECHANISM” (priority 2009, published 2011).

The subject of series [1] is female Swiss-Webster mice. The series is described as follows: Induction and challenge phases of DTH in the mouse ear. The series is classed as in vivo. The source says: Effects of Di-Rhamnolipid W3CTS on the Induction and Challenge Phases of DTH in Female Swiss-Webster Mice.
The aims of this study were first, to evaluate the in-vivo effects of Di-rhamnolipid W3CTS on aspects of a T-cell mediated immune response in mice and second, to determine if Di-rhamnolipid W3CTS was a sensitizing agent. This formed one of a series of studies to evaluate the toxicity and functionality of Di-rhamnolipid W3CTS.
The model used was induced delayed-type hypersensitivity (DTH) response in the mouse ear. In general, the DTH model involves administering a sensitizing agent mixed with an adjuvant, one or more occasions to prime the immune system. One to two weeks after the final induction and boost(s), animals are re-exposed to the sensitizing antigen, with a small volume injected intradermally in the ear, to elicit a secondary response (challenge). The ear swells during the secondary T-cell mediated response, and thus the change in ear thickness from prestimulation can be quantified. The present study had several sub-components testing different components of the immune response.
Parts A & B followed the standard procedure, in which the treatment test article, Di-rhamnolipid W3CTS, was administered topically concurrent to the challenge with sensitizing agent. Additionally, the effects of Di-rhamnolipid W3CTS on development of the primary immune response were also tested (Parts C&D). Therefore it was possible to obtain preliminary information about potential activity of Di-rhamnolipid W3CTS on more than one arm of the immune system. In parts B, C, and D, the protein ovalbumin, in CFA (Complete Freund's Adjuvant) or IFA (Incomplete Freund's Adjuvant) was used as the sensitizing agent as it is a standard with well-characterized, quantifiable activity in DTH. An additional compound, DNCB (1-chloro-2,4-di-nitro benzene) with gamma interferon (IFN-gamma), was also used (Group A) in order to maximize the opportunity to characterize the activity of Di-rhamnolipid W3CTS on T-cell mediated immunity. […]

The target of series [2] is dopamine D1 (human recombinant) (Homo sapiens, UniProt P21728). As to the kind of experiment: Dopamine D1 receptor binding of [3H]SCH23390. Conditions: 100 μM in 0.5% DMSO. How it is done: (§1) At the concentration of 100 μM Di-rhamnolipid W3CTS in 0.5% DMSO, Di-rhamnolipid W3CTS inhibited 100% dopamine D1 (human recombinant) binding of [^3H] SCH23390. At the same concentration of 100 μM W3CTS in 0.5 DMSO measuring binding of [^3H]Spiperone to human dopamine D2L (human recombinant) was inhibited by 53%.

For series [3], the target named is human dopamine D2L (human recombinant) (Homo sapiens, UniProt P14416). As to the kind of experiment: Dopamine D2L receptor binding of [3H]Spiperone. The settings on record: 100 μM in 0.5 DMSO. Here is the method: as §1
Series [4] has as its system chronic decubitus ulcer in humans. As to the kind of experiment: Treatment of chronic decubitus ulcer. Conditions: topical 0.1% eucerin ointment; single case. It is filed as in vivo, human. The source says:
Treatment of Chronic Decubitus Ulcer with Di-Rhamnolipid W3CTS

Series [5] concerns Guinea pig lung LTC4 synthetase. As to the kind of experiment: Leukotriene C4 synthetase inhibition (EIA). Conditions: highest concentration 1,000 μM/ml; DMSO 0.5%. The series is classed as biochemical. How it is done: Leukotriene C4 (LTC4) synthetase is involved in the formation of LTC4 from LTA4. Taken together with other assays for enzymes involved in the lipoxygenase pathway (e.g. 5-lipoxygenase, LTA4 hydrolase), a locus of action can be established for agents which inhibit the formation of leukotrienes. Guinea pig lung LTC4 synthetase was used. Test compound and/or vehicle was pre-incubated with 180 μg/ml enzyme in phosphate buffer pH 7.8 for 15 minutes at 37° C. The reaction is initiated by the addition of 2.5 μg/ml LTA4 methyl ester for another 30 minute incubation period and terminated by further addition of ice-cold methanol. Determination of the amount of LTC4 formed is read spectrophotometrically by enzyme immunoassay kit (EIA). W3CTS was screened at 1,000; 100; 10; and 1 μM/ml. Solvent was DMSO 0.5%. Sulfazine was used as a reference. Inhibition was 81% at the highest concentration of 1,000 μM/ml.

The subject of series [6] is T-lymphocyte cells isolated from thymus of balb/c mice. The series is described as follows: Mouse T-cell proliferation (thymidine incorporation). It is filed as cell-based. Here is the method:
T-lymphocyte cells isolated from thymus of balb/c mice weighing 17±1 g were used. Test compound and/or vehicle was incubated with the cells (4×10^6/ml) in the presence of 3 μg/ml concanavalin A (Con A) overnight. Thymidine incorporation was assessed by liquid scintillation counting. B-lymphocyte cells isolated from the spleen of balb/c mice weighing 17±1 g were used. Test compound and/or vehicle was incubated with the cells (1.5×10^6/ml) in the presence of 10 μg/ml lipopolysaccharide (LPS) in AIM-V medium pH 7.4 at 37° C., during 24 hours. [^3H]Thymidine (120 nM) was then added for an additional overnight incubation period. Thymidine incorporation was assessed by liquid scintillation counting. […] T-cells isolated from mouse thymus were inhibited at the concentration of 10 μM by 24% and in the presence of concanavalin T-cells proliferation was inhibited 43%.

Read-outs that look alike come from different tables or passages of the source.

dopamine D1 (human recombinant), sequence (P21728 whole entry): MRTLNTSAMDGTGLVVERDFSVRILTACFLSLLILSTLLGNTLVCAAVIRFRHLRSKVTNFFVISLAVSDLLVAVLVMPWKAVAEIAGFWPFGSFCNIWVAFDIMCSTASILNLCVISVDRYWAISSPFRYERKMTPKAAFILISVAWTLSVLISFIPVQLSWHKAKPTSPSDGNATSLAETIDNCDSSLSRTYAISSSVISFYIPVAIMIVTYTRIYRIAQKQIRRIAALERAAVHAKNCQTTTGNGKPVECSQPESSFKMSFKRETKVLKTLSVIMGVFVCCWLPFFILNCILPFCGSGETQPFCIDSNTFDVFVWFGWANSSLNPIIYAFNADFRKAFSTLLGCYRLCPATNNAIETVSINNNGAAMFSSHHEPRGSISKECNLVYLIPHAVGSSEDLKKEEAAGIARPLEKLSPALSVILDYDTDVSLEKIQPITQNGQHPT
human dopamine D2L (human recombinant), sequence (P14416 whole entry): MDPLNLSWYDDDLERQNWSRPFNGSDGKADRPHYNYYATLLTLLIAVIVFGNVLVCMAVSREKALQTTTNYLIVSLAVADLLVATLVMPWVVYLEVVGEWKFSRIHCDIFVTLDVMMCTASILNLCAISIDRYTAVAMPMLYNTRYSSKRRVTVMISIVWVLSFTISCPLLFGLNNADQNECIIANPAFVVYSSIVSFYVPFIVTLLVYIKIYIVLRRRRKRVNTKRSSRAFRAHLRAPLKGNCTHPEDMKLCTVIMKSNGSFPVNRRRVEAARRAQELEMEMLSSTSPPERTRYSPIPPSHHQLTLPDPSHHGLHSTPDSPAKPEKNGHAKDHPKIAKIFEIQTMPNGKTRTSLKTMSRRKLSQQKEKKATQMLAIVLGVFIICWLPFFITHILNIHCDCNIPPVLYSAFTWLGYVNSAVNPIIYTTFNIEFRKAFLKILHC

As to `CCCCCCCC(CC(=O)O)OC(=O)CC(CCCCCCC)OC1OC(C)C(O)C(O)C1OC1OC(C)C(O)C(O)C1O` (stereo not shown) [Di-rhamnolipid W3CTS], the “effect on subsequent DTH response (Part C)” value in series [1] (concurrently administered at induction with ovalbumin/IFA) was “inhibit the subsequent DTH response”. The “effect on primary immune response (Part D)” value in series [1] (given at induction) is on record as “did not show potential to enhance a primary immune response”. Also, the “effect on secondary immune response, DTH (Part B)” value in series [1] (topical at challenge, ovalbumin/CFA) is recorded as “sustained or increased DTH response”. Also, the inhibition at 100 µM was determined as 100% in series [2] and 53% in series [3]. The Ames test entry in the series “Ames test” was “negative”. In series [4], the “healing of chronic decubitus ulcer” value is “profound beneficial effect on the healing”. Further, the “Inhibition of LTC4 synthetase” value in series [5] was 81%. Also, the inhibition at 10 µM in series [6] (in the presence of concanavalin, read-out: inhibition of T-cells proliferation) came out at 43%; in series [6] (without concanavalin, read-out: inhibition of T-cells), 24%.
